Laboratory results: patent US20150150897A1, “METHODS OF TREATING HEPATITIS C VIRUS INFECTION IN SUBJECTS WITH CIRRHOSIS” (priority 2013, published 2015)

How the values were obtained:
[1] = healthy volunteers, cited from earlier work
[2] = Clinical trials of Compound 1: resistance and tolerability; format: in vivo, human
Excerpt: Compound 1, is also known as “sofosbuvir” or “SOF”.

SMILES	increases in Compound 1 exposure from co-administration ([1]; co-administration with GS-5885, GS-9669, and GS-5885+GS-9669)	tolerability [2]	exposure on concurrent administration of Compound 1 [1]
CC(C)OC(=O)[C@H](C)N[P@](=O)(OC[C@H]1O[C@@H](n2ccc(=O)[nH]c2=O)[C@](C)(F)[C@@H]1O)Oc1ccccc1 [Compound 1, (S)-isopropyl2-(((S)-(((2R,3R,4R,5R)-5-(2,4-dioxo-3,4-dihydrophyrimidin-1(2H)-yl)-4-fluoro-3-hydroxy-4-methyltetrahydrofuran-2-yl)methoxy)(phenoxy)phosphoryl)amino)propanoate]	not clinically significant	well-tolerated	–
COC(=O)N[C@H](C(=O)N1CC2(CC2)C[C@H]1c1ncc(-c2ccc3c(c2)C(F)(F)c2cc(-c4ccc5nc([C@@H]6[C@H]7CC[C@H](C7)N6C(=O)[C@@H](NC(=O)OC)C(C)C)[nH]c5c4)ccc2-3)[nH]1)C(C)C [GS-5885]	–	–	unaffected
COC[C@H]1C[C@@H](c2ncc(-c3ccc4c(c3)COc3cc5c(ccc6nc([C@@H]7CC[C@H](C)N7C(=O)[C@@H](NC(=O)OC)C(C)C)[nH]c65)cc3-4)[nH]2)N(C(=O)[C@H](NC(=O)OC)c2ccccc2)C1 [GS-9669]	–	–	unaffected
